In US10633419B2, “Immunomodulators” (BRISTOL-MYERS SQUIBB COMPANY, priority 2014, dated 2020):
Read-outs that look alike come from different tables or passages of the source. Starred links: 1 amine or outer side, 2 acyl side, 3 side chain; linkers in the order of their positions; H or OH if unused. Positions of bridges follow the written chain, without caps; N, C: chain ends. Non-standard residues stand in square brackets, D forms with d. Residues, ends and D or L forms follow the SMILES beside them. *: point of attachment. εLys(α-Octadecanedioyl) = O=C(O)CCCCCCCCCCCCCCCCC(=O)N[C@@H](CCCCN*)C(=O)O; X6 = O=C(O)CCCCCCCCCCCCCCCCC(=O)N[C@@H](CCC(=O)NCCCOCCOCCOCCCN*)C(=O)O; X4 = O=C(O)CCCCCCCCCCCCCCCCC(=O)N[C@@H](CC(=O)NCCCOCCOCCOCCCN*)C(=O)O; X15 = O=C(O)CCCCCCCCCCNC(=O)CCCCCCCCCCNC(=O)CCC(=O)NCCCOCCOCCOCCCN*; Trp(1-CH2COOH) = N[C@@H](Cc1cn(CC(=O)O)c2ccccc12)C(=O)O; X10 = O=C(O)CCCCCCCCCCCCCCC(=O)N[C@@H](CN*)C(=O)O; NH(CH2)14COOH = O=C(O)CCCCCCCCCCCCCCN*; Phe(4-F) = N[C@@H](Cc1ccc(F)cc1)C(=O)O; d(cisHyp) = O=C(O)[C@H]1C[C@@H](O)CN1; βAsp = O=C(O)[C@H](CC(=O)[*:2])N[*:1]; PEG6 = NCCOCCOCCOCCOCCOCCOCCC(=O)O; Hyp = O=C(O)[C@@H]1C[C@@H](O)CN1; dHyp = O=C(O)[C@H]1C[C@H](O)CN1; Undecanoyl = CCCCCCCCCCC(=O)*; NMeNle = CCCC[C@H](NC)C(=O)O; Pip = O=C(O)[C@@H]1CCCCN1; NMeA = CN[C@@H](C)C(=O)O; Pra = C#CC[C@H](N)C(=O)O; Dab = NCC[C@H](N)C(=O)O; Dap = NC[C@H](N)C(=O)O

Biological target: T1, PD-L1 (Homo sapiens, UniProt Q9NZQ7)
T1 construct: hPDL1(19-239)-TVMV-His; made in house; host or cells: HEK293T
T1 sequence (Q9NZQ7 with tags, fused parts or gaps): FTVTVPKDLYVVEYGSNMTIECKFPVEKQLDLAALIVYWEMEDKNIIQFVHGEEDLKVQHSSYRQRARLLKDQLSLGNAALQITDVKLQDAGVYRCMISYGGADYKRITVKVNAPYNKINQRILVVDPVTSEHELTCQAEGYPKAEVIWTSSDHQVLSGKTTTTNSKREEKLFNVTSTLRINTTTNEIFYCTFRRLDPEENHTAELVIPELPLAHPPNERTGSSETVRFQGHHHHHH
Experiment: PD-1/PD-L1 Homogenous Time-Resolved Fluorescence (HTRF) binding assay (PD-1-Ig/PD-L1-His)
Conditions: inhibition of PD-1-Ig binding to PD-L1-TVMV-His, read-out: HTRF IC50
Summary of the method: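 HTRF competition in dPBS with 0.1% BSA and 0.05% Tween-20: 20 nM PD-1-Ig added after 15 min compound pre-incubation with 10 nM PD-L1-His, then another 15 min. Signal (665/620 nm) after 30 min with APC anti-His (20 nM) and Eu anti-Ig (1 nM).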

Compound	IC50 (value given as number)	IC50 (value given as range class)
CCCCCCCCCCC(=O)NCCCC[C@H](NC(=O)[C@H](CC(=O)O)NC(=O)CNC(=O)CNC(=O)CNC(=O)[C@@H]1CSCC(=O)N[C@@H](Cc2ccc(O)cc2)C(=O)N(C)[C@@H](C)C(=O)N[C@@H](CC(N)=O)C(=O)N2CCC[C@H]2C(=O)N[C@@H](CCN)C(=O)N[C@@H](CC(C)C)C(=O)N2C[C@H](O)C[C@H]2C(=O)N[C@@H](Cc2c[nH]c3ccccc23)C(=O)N[C@@H](CO)C(=O)N[C@@H](Cc2c[nH]c3ccccc23)C(=O)N(C)[C@@H](CCCC)C(=O)N(C)[C@@H](CCCC)C(=O)N[C@@H](CCCNC(=N)N)C(=O)N1)C(N)=O [Example 11003] ({CH2CO}-Y[NMeA]NP[Dab]L[Hyp]WSW[NMeNle][NMeNle]RCGGGDK(Undecanoyl)-NH2; thioether N-14)	54.6 nM	–
CCCC[C@H]1C(=O)N(C)[C@@H](CCCC)C(=O)N[C@@H](CC(C)C)C(=O)N[C@H](C(=O)NCC(=O)NCCCCCCCCCCCCCCC(=O)O)CSCC(=O)N[C@@H](Cc2ccc(O)cc2)C(=O)N(C)[C@@H](C)C(=O)N[C@@H](CC(N)=O)C(=O)N2CCC[C@H]2C(=O)N[C@@H](CN)C(=O)N[C@@H](CC(C)C)C(=O)N2C[C@H](O)C[C@H]2C(=O)N[C@@H](Cc2c[nH]c3ccccc23)C(=O)N[C@@H](CCN)C(=O)N[C@@H](Cc2cn(CC(=O)O)c3ccccc23)C(=O)N1C [Example 11197] ({CH2CO}-Y[NMeA]NP[Dap]L[Hyp]W[Dab][Trp(1-CH2COOH)][NMeNle][NMeNle]LCG-{NH(CH2)14COOH}; thioether N-14)	–	10 to 99 nM
CCCC[C@H]1C(=O)N(C)[C@@H](CCCC)C(=O)N[C@@H](CC(C)C)C(=O)N[C@H](C(=O)NCC(=O)N[C@@H](CCC(=O)NCCCOCCOCCOCCCNC(=O)C[C@H](NC(=O)CCCCCCCCCCCCCCCCC(=O)O)C(=O)O)C(=O)O)CSCC(=O)N[C@@H](Cc2ccc(O)cc2)C(=O)N(C)[C@@H](C)C(=O)N[C@@H](CC(N)=O)C(=O)N2CCC[C@@H]2C(=O)N[C@@H](CN)C(=O)N[C@@H](CC(C)C)C(=O)N2C[C@@H](O)C[C@@H]2C(=O)N[C@@H](Cc2c[nH]c3ccccc23)C(=O)N[C@@H](CCN)C(=O)N[C@@H](Cc2cn(CC(=O)O)c3ccccc23)C(=O)N1C [Example 11234] ({CH2CO}-Y[NMeA]N[dP][Dap]L[dHyp]W[Dab][Trp(1-CH2COOH)][NMeNle][NMeNle]LCGE(X4)-OH; thioether N-14)	–	0.3 to 9.9 nM
CCCC[C@H]1C(=O)N(C)[C@@H](CCCC)C(=O)N[C@@H](CC(C)C)C(=O)N[C@H](C(=O)NCCCOCCOCCOCCCNC(=O)CCC(=O)NCCCCCCCCCCC(=O)NCCCCCCCCCCC(=O)O)CSCC(=O)N[C@@H](Cc2ccc(O)cc2)C(=O)N(C)[C@@H](C)C(=O)N[C@@H](CC(N)=O)C(=O)N2CCC[C@H]2C(=O)N[C@@H](CN)C(=O)N[C@@H](CCC(N)=O)C(=O)N2C[C@H](O)C[C@H]2C(=O)N[C@@H](Cc2c[nH]c3ccccc23)C(=O)N[C@@H](CO)C(=O)N[C@@H](Cc2cn(CC(=O)O)c3ccccc23)C(=O)N1C [Example 11087] ({CH2CO}-Y[NMeA]NP[Dap]Q[Hyp]WS[Trp(1-CH2COOH)][NMeNle][NMeNle]LC-X15; thioether N-14)	–	10 to 99 nM
CCCC[C@H]1C(=O)N(C)[C@@H](CCCC)C(=O)N[C@@H](CC(C)C)C(=O)N[C@H](C(=O)NCC(=O)NCCCC[C@H](NC(=O)CCCCCCCCCCCCCCCCC(=O)O)C(=O)O)CSCC(=O)N[C@@H](Cc2ccc(O)cc2)C(=O)N(C)[C@@H](C)C(=O)N[C@@H](CC(N)=O)C(=O)N2CCC[C@H]2C(=O)N[C@@H](CN)C(=O)N[C@@H](CC(C)C)C(=O)N2C[C@H](O)C[C@@H]2C(=O)N[C@@H](Cc2c[nH]c3ccccc23)C(=O)N[C@@H](CCN)C(=O)N[C@@H](Cc2cn(CC(=O)O)c3ccccc23)C(=O)N1C [Example 11141] ({CH2CO}-Y[NMeA]NP[Dap]L[d(cisHyp)]W[Dab][Trp(1-CH2COOH)][NMeNle][NMeNle]LCG-{εLys(α-Octadecanedioyl)}; thioether N-14)	–	10 to 99 nM
CCCC[C@H]1C(=O)N(C)[C@@H](CCCC)C(=O)N[C@@H](CC(C)C)C(=O)N[C@H](C(=O)NCC(=O)N[C@@H](CCC(=O)O)C(=O)NCCCOCCOCCOCCCNC(=O)CC[C@H](NC(=O)CCCCCCCCCCCCCCCCC(=O)O)C(=O)O)CSCC(=O)N[C@@H](Cc2ccc(F)cc2)C(=O)N2CCCC[C@H]2C(=O)N[C@@H](CC(=O)O)C(=O)N2CCC[C@H]2C(=O)N[C@@H](CN)C(=O)N[C@@H](CCC(=O)O)C(=O)N2C[C@H](O)C[C@H]2C(=O)N[C@@H](Cc2c[nH]c3ccccc23)C(=O)N[C@@H](CCN)C(=O)N[C@@H](Cc2cn(CC(=O)O)c3ccccc23)C(=O)N1C [Example 11265] ({CH2CO}-[Phe(4-F)][Pip]DP[Dap]E[Hyp]W[Dab][Trp(1-CH2COOH)][NMeNle][NMeNle]LCGE-X6; thioether N-14)	–	10 to 99 nM

Next, values leading:

IC50 (value given as number)	IC50 (value given as range class)	Compound
–	0.3 to 9.9 nM	C#CC[C@H](NC(=O)CNC(=O)[C@@H]1CSCC(=O)N[C@@H](Cc2ccc(O)cc2)C(=O)N(C)[C@@H](C)C(=O)N[C@@H](CC(=O)O)C(=O)N2CCC[C@H]2C(=O)N[C@@H](Cc2c[nH]cn2)C(=O)N[C@@H](CCCCN)C(=O)N2C[C@H](O)C[C@H]2C(=O)N[C@@H](Cc2c[nH]c3ccccc23)C(=O)N[C@@H](CCCCN)C(=O)N[C@@H](Cc2cn(CC(=O)O)c3ccccc23)C(=O)N(C)[C@@H](CCCC)C(=O)N(C)[C@@H](CCCC)C(=O)N[C@@H](CCC(=O)O)C(=O)N1)C(=O)NCC(N)=O [INT 1400D] ({CH2CO}-Y[NMeA]DPHK[Hyp]WK[Trp(1-CH2COOH)][NMeNle][NMeNle]ECG[Pra]G-NH2; thioether N-14)
–	0.3 to 9.9 nM	CCCC[C@H]1C(=O)N(C)[C@@H](CCCC)C(=O)N[C@@H](CC(C)C)C(=O)N[C@H](C(=O)NCC(=O)N[C@@H](CC(=O)NCCOCCOCCOCCOCCOCCOCCC(=O)NC[C@H](NC(=O)CCCCCCCCCCCCCCC(=O)O)C(=O)O)C(=O)O)CSCC(=O)N[C@@H](Cc2ccc(O)cc2)C(=O)N(C)[C@@H](C)C(=O)N[C@@H](CC(N)=O)C(=O)N2CCC[C@H]2C(=O)N[C@@H](CN)C(=O)N[C@@H](CC(C)C)C(=O)N2C[C@H](O)C[C@@H]2C(=O)N[C@@H](Cc2c[nH]c3ccccc23)C(=O)N[C@@H](CCN)C(=O)N[C@@H](Cc2cn(CC(=O)O)c3ccccc23)C(=O)N1C [Example 11164] ({CH2CO}-Y[NMeA]NP[Dap]L[d(cisHyp)]W[Dab][Trp(1-CH2COOH)][NMeNle][NMeNle]LCG[βAsp][PEG6]-X10; thioether N-14)
–	0.3 to 9.9 nM	CCCC[C@H]1C(=O)N(C)[C@@H](CCCC)C(=O)N[C@@H](CCCNC(=N)N)C(=O)N[C@H](C(=O)NCC(=O)N[C@@H](Cc2cn(CC[C@H](NC(=O)CCCCCCCCCCCCCCC(=O)O)C(=O)O)nn2)C(N)=O)CSCC(=O)N[C@@H](Cc2ccc(O)cc2)C(=O)N(C)[C@@H](C)C(=O)N[C@@H](CC(N)=O)C(=O)N2CCC[C@H]2C(=O)N[C@@H](CN)C(=O)N[C@@H](CC(C)C)C(=O)N2C[C@H](O)C[C@H]2C(=O)N[C@@H](Cc2c[nH]c3ccccc23)C(=O)N[C@@H](CO)C(=O)N[C@@H](Cc2c[nH]c3ccccc23)C(=O)N1C [Example 14066]
